We go through 5 molecules from patent publication US11000033B2, “Ketone or oxime compound, and herbicide” (NISSAN CHEMICAL CORPORATION, priority 2014, dated 2021).

What all share (assay type): in vivo
One data set deals with Lolium multiflorum Lam. Put plainly: Test Example 5: herbicidal effect by foliage application, plastic box (symbol K). The conditions noted are these: 320 g/ha, 3 weeks after application. An outline of the steps: (§1)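 Post-emergence spray; diluvial soil (sterilized), ~1.5 cm seed cover; greenhouse 25–30° C; 14-day-old plants; water-diluted emulsion at predetermined dose; visual score at 3 wk post-treatment.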

A further data set relates to Setaria viridis. The data set can be described thus: Test Example 5: herbicidal effect by foliage application, plastic box (symbol G). The conditions noted are these: 320 g/ha, 3 weeks after application. In outline: as §1
The next data set concerns Galium spurium. Put plainly: Test Example 5: herbicidal effect by foliage application, plastic box (symbol Q). The conditions noted are these: 320 g/ha, 3 weeks after application. In outline: as §1
Data set [1] concerns beet. The data set can be described thus: Test Example 5: effect on crop by foliage application, plastic box (symbol f). To be noted: 320 g/ha, 3 weeks after application. In outline: (§2)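 Plants were raised from seed in a greenhouse (25° C. to 30° C.) after sowing in a plastic box of sterilized diluvial soil.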
In a further data set the test system is Monochoria vaginalis. The data set can be described thus: Test Example 1: herbicidal activity, application before weed generation in submerged conditions (symbol C). To be noted: application herbicide amount 320 g/ha. An outline of the steps: (§3)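 Application before weed emergence: an aqueous dilution of the emulsion formulation was poured onto the surface of 4 cm-deep floodwater on the day of sowing. Effect was judged after 3 weeks (greenhouse, 25–30 °C).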

Data set [2] deals with rapeseed. The data set can be described thus: Test Example 4: effect on crop by soil treatment (symbol g). The conditions noted are these: application herbicide amount 320 g/ha. In outline:
(§4)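 Plants are raised in a greenhouse (25° C. to 30° C.) from spot-sown seed, which sits under about 1.5 cm of sterilized diluvial soil in a box shared with weed species.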

The test system of a further data set is Amaranthus retroflexus. Put plainly: Test Example 4: herbicidal effect by soil treatment (symbol N). The conditions noted are these: application herbicide amount 320 g/ha. In outline:
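Seeds were sown in sterilized diluvial soil, covered with about 1.5 cm of soil, and the soil surface was sprayed with a water-diluted emulsion of the compound at a predetermined rate. Plants grew in a greenhouse at 25° C. to 30° C.; effects were scored visually 3 weeks after application.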

In the next data set the test system is Apera spica-venti. The data set can be described thus: Test Example 5: herbicidal effect by foliage application, plastic box (symbol L). The conditions noted are these: 320 g/ha, 3 weeks after application. An outline of the steps:
as §1

Data set [3] has as its system beet. The data set can be described thus: Test Example 4: effect on crop by soil treatment (symbol f). The conditions noted are these: application herbicide amount 320 g/ha. An outline of the steps: as §4
Another data set has as its system wheat. Put plainly: Test Example 5: effect on crop by foliage application, plastic box (symbol e). The conditions noted are these: 320 g/ha, 3 weeks after application. In outline: as §2
The subject of a further data set is Scirpus juncoides. Put plainly: Test Example 1: herbicidal activity, application before weed generation in submerged conditions (symbol B). The conditions noted are these: application herbicide amount 320 g/ha. An outline of the steps: as §3
Another data set has as its system Cyperus difformis. Put plainly: Test Example 3: herbicidal effect by foliage application, Wagner pot (symbol E). The conditions noted are these: application herbicide amount 320 g/ha, Table 24. An outline of the steps: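 The compound, formulated as an emulsion and diluted with water to a predetermined rate, is applied uniformly to leaves of two-week-old seedlings growing in submerged alluvial soil at 25–30 °C. Rice is included. Each plant is assessed 3 weeks later using defined criteria.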

The test system of data set [4] is rapeseed. The data set can be described thus: Test Example 5: effect on crop by foliage application, plastic box (symbol g). To be noted: 320 g/ha, 3 weeks after application. An outline of the steps:
as §2

For the next data set, the system named is corn. The data set can be described thus: Test Example 4: effect on crop by soil treatment (symbol c). The conditions noted are these: application herbicide amount 320 g/ha. In outline:
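Sterilized diluvial soil, spot sowing, ~1.5 cm soil cover; greenhouse 25–30° C.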

`Cc1cc(-n2cc(Cl)cn2)cc(C)c1C1=C(O)CC(CC(=NOCC(F)(F)F)C(C)C)C1=O` (stereo not shown) [9-014]: the “K: Lolium multiflorum Lam., herbicidal effect grade” value in the data set on Lolium multiflorum Lam. was 4 (Herbicidal ratio of 70% or higher and lower than 90%). Moreover, the “G: Setaria viridis, herbicidal effect grade” value (“G: Setaria viridis” for short) with Setaria viridis was 5 (Herbicidal ratio of 90% or more (almost completely withered)). In the data set on Galium spurium, the “Q: Galium spurium, herbicidal effect grade” value (“Q: Galium spurium” for short) is listed as 0 (Herbicidal ratio of 5% or lower (almost no effect)). Besides, the “f: beet, effect on crop grade” value with beet [1] is reported as 0 (Herbicidal ratio of 5% or lower (almost no effect)). In addition, the “C (Monochoria vaginalis) herbicidal effect grade” value in the data set with Monochoria vaginalis is 2 (Herbicidal ratio of 20% or higher and lower than 40%). For the same molecule, in the data set with rapeseed [2], the “Effect on crop grade, g: rapeseed” value is 0 (Herbicidal ratio of 5% or lower (almost no effect)). Moreover, the “Herbicidal effect grade, N: Amaranthus retroflexus” value (“Herbicidal effect grade, N” below) with Amaranthus retroflexus is 0 (Herbicidal ratio of 5% or lower (almost no effect)). The “L: Apera spica-venti, herbicidal effect grade” value (“L: Apera spica-venti” below) with Apera spica-venti is 3 (Herbicidal ratio of 40% or higher and lower than 70%). The “Effect on crop grade, f: beet” value in the data set with beet [3] is listed as 0 (Herbicidal ratio of 5% or lower (almost no effect)). Further, in the data set on wheat, the “e: wheat, effect on crop grade” value is 1 (Herbicidal ratio of 5% or higher and lower than 20%). Further, the “B (Scirpus juncoides) herbicidal effect grade” value in the data set with Scirpus juncoides was 4 (Herbicidal ratio of 70% or higher and lower than 90%). For the same molecule, the “E herbicidal effect grade” value in the data set on Cyperus difformis was 5 (Herbicidal ratio of 90% or more (almost completely withered)). For the same molecule, in the data set on rapeseed [4], the “g: rapeseed, effect on crop grade” value was 2 (Herbicidal ratio of 20% or higher and lower than 40%). The “Effect on crop grade, c: corn” value in the data set with corn was 0 (Herbicidal ratio of 5% or lower (almost no effect)).

As for `CC#Cc1cc(C)c(C2=C(O)CC(CC(=NOCC(F)(F)F)C(C)C)C2=O)c(C)c1` (stereo not shown) [9-015], in the data set on Lolium multiflorum Lam., the “K: Lolium multiflorum Lam., herbicidal effect grade” value is given as 5 (Herbicidal ratio of 90% or more (almost completely withered)). In the data set with Setaria viridis, the “G: Setaria viridis” value is recorded as 5 (Herbicidal ratio of 90% or more (almost completely withered)). Besides, the “Q: Galium spurium” value in the data set with Galium spurium is 2 (Herbicidal ratio of 20% or higher and lower than 40%). For the same molecule, in the data set on beet [1], the “f: beet, effect on crop grade” value is given as 0 (Herbicidal ratio of 5% or lower (almost no effect)). Moreover, the “C (Monochoria vaginalis) herbicidal effect grade” value in the data set with Monochoria vaginalis was 1 (Herbicidal ratio of 5% or higher and lower than 20%). In the data set on rapeseed [2], the “Effect on crop grade, g: rapeseed” value is listed as 0 (Herbicidal ratio of 5% or lower (almost no effect)). Further, in the data set on Amaranthus retroflexus, the “Herbicidal effect grade, N” value is 0 (Herbicidal ratio of 5% or lower (almost no effect)). The “L: Apera spica-venti” value in the data set on Apera spica-venti is given as 5 (Herbicidal ratio of 90% or more (almost completely withered)). The “Effect on crop grade, f: beet” value in the data set on beet [3] is 0 (Herbicidal ratio of 5% or lower (almost no effect)). Moreover, the “e: wheat, effect on crop grade” value in the data set with wheat is 3 (Herbicidal ratio of 40% or higher and lower than 70%). Besides, in the data set on Scirpus juncoides, the “B (Scirpus juncoides) herbicidal effect grade” value is 5 (Herbicidal ratio of 90% or more (almost completely withered)). In the data set with Cyperus difformis, the “E herbicidal effect grade” value is on record as 5 (Herbicidal ratio of 90% or more (almost completely withered)). Also, in the data set on rapeseed [4], the “g: rapeseed, effect on crop grade” value is listed as 5 (Herbicidal ratio of 90% or more (almost completely withered)). Also, the “Effect on crop grade, c: corn” value with corn is listed as 0 (Herbicidal ratio of 5% or lower (almost no effect)).

In the case of `COCCON=C(C)CC1CC(O)=C(c2c(C)cc(-n3cc(Cl)cn3)cc2C)C1=O` (stereo not shown) [9-016], the “K: Lolium multiflorum Lam., herbicidal effect grade” value in the data set with Lolium multiflorum Lam. is reported as 5 (Herbicidal ratio of 90% or more (almost completely withered)). Further, the “G: Setaria viridis” value with Setaria viridis is 5 (Herbicidal ratio of 90% or more (almost completely withered)). Further, the “Q: Galium spurium” value in the data set with Galium spurium was 2 (Herbicidal ratio of 20% or higher and lower than 40%). Moreover, the “f: beet, effect on crop grade” value in the data set with beet [1] is reported as 0 (Herbicidal ratio of 5% or lower (almost no effect)). Further, the “C (Monochoria vaginalis) herbicidal effect grade” value in the data set on Monochoria vaginalis is 2 (Herbicidal ratio of 20% or higher and lower than 40%). Further, the “Effect on crop grade, g: rapeseed” value in the data set on rapeseed [2] is listed as 0 (Herbicidal ratio of 5% or lower (almost no effect)). For the same molecule, in the data set on Amaranthus retroflexus, the “Herbicidal effect grade, N” value is recorded as 0 (Herbicidal ratio of 5% or lower (almost no effect)). Moreover, in the data set with Apera spica-venti, the “L: Apera spica-venti” value is recorded as 5 (Herbicidal ratio of 90% or more (almost completely withered)). The “Effect on crop grade, f: beet” value in the data set on beet [3] is 0 (Herbicidal ratio of 5% or lower (almost no effect)). Besides, in the data set with wheat, the “e: wheat, effect on crop grade” value is 3 (Herbicidal ratio of 40% or higher and lower than 70%). Also, in the data set with Scirpus juncoides, the “B (Scirpus juncoides) herbicidal effect grade” value was 5 (Herbicidal ratio of 90% or more (almost completely withered)). Moreover, in the data set on Cyperus difformis, the “E herbicidal effect grade” value was 5 (Herbicidal ratio of 90% or more (almost completely withered)). In addition, in the data set on rapeseed [4], the “g: rapeseed, effect on crop grade” value is 3 (Herbicidal ratio of 40% or higher and lower than 70%). In addition, in the data set with corn, the “Effect on crop grade, c: corn” value is 3 (Herbicidal ratio of 40% or higher and lower than 70%).

`COCCON=C(C)CC1CC(O)=C(c2c(C)cc(Br)cc2C)C1=O` (stereo not shown) [9-017]: the “K: Lolium multiflorum Lam., herbicidal effect grade” value in the data set on Lolium multiflorum Lam. is given as 5 (Herbicidal ratio of 90% or more (almost completely withered)). In addition, the “G: Setaria viridis” value in the data set with Setaria viridis is 5 (Herbicidal ratio of 90% or more (almost completely withered)). For the same molecule, in the data set on Galium spurium, the “Q: Galium spurium” value was 0 (Herbicidal ratio of 5% or lower (almost no effect)). Moreover, in the data set on beet [1], the “f: beet, effect on crop grade” value is given as 0 (Herbicidal ratio of 5% or lower (almost no effect)). In the data set with Monochoria vaginalis, the “C (Monochoria vaginalis) herbicidal effect grade” value is recorded as 0 (Herbicidal ratio of 5% or lower (almost no effect)). Besides, the “Effect on crop grade, g: rapeseed” value with rapeseed [2] is on record as 0 (Herbicidal ratio of 5% or lower (almost no effect)). Further, in the data set with Amaranthus retroflexus, the “Herbicidal effect grade, N” value is on record as 0 (Herbicidal ratio of 5% or lower (almost no effect)). The “L: Apera spica-venti” value in the data set on Apera spica-venti was 3 (Herbicidal ratio of 40% or higher and lower than 70%). Besides, the “Effect on crop grade, f: beet” value in the data set with beet [3] is 0 (Herbicidal ratio of 5% or lower (almost no effect)). Besides, in the data set with wheat, the “e: wheat, effect on crop grade” value is 3 (Herbicidal ratio of 40% or higher and lower than 70%). In addition, the “B (Scirpus juncoides) herbicidal effect grade” value with Scirpus juncoides is 2 (Herbicidal ratio of 20% or higher and lower than 40%). In the data set on Cyperus difformis, the “E herbicidal effect grade” value was 3 (Herbicidal ratio of 40% or higher and lower than 70%). The “g: rapeseed, effect on crop grade” value with rapeseed [4] was 3 (Herbicidal ratio of 40% or higher and lower than 70%). Also, in the data set with corn, the “Effect on crop grade, c: corn” value is listed as 0 (Herbicidal ratio of 5% or lower (almost no effect)).

On to `COCCON=C(CC1CC(O)=C(c2c(C)cc(Br)cc2C)C1=O)C1CC1` (stereo not shown) [9-019], for which the “K: Lolium multiflorum Lam., herbicidal effect grade” value in the data set with Lolium multiflorum Lam. is given as 5 (Herbicidal ratio of 90% or more (almost completely withered)). Moreover, the “G: Setaria viridis” value in the data set on Setaria viridis is listed as 5 (Herbicidal ratio of 90% or more (almost completely withered)). Further, in the data set with Galium spurium, the “Q: Galium spurium” value was 0 (Herbicidal ratio of 5% or lower (almost no effect)). For the same molecule, the “f: beet, effect on crop grade” value in the data set with beet [1] is 0 (Herbicidal ratio of 5% or lower (almost no effect)). The “C (Monochoria vaginalis) herbicidal effect grade” value with Monochoria vaginalis is 0 (Herbicidal ratio of 5% or lower (almost no effect)). For the same molecule, the “Effect on crop grade, g: rapeseed” value with rapeseed [2] is on record as 0 (Herbicidal ratio of 5% or lower (almost no effect)). The “Herbicidal effect grade, N” value in the data set with Amaranthus retroflexus was 0 (Herbicidal ratio of 5% or lower (almost no effect)). The “L: Apera spica-venti” value with Apera spica-venti is 1 (Herbicidal ratio of 5% or higher and lower than 20%). In addition, the “Effect on crop grade, f: beet” value in the data set with beet [3] is given as 0 (Herbicidal ratio of 5% or lower (almost no effect)). Moreover, in the data set with wheat, the “e: wheat, effect on crop grade” value is 0 (Herbicidal ratio of 5% or lower (almost no effect)). The “B (Scirpus juncoides) herbicidal effect grade” value with Scirpus juncoides is 0 (Herbicidal ratio of 5% or lower (almost no effect)). In the data set with Cyperus difformis, the “E herbicidal effect grade” value is 4 (Herbicidal ratio of 70% or higher and lower than 90%). Further, the “g: rapeseed, effect on crop grade” value in the data set with rapeseed [4] was 1 (Herbicidal ratio of 5% or higher and lower than 20%). Moreover, the “Effect on crop grade, c: corn” value in the data set on corn is recorded as 0 (Herbicidal ratio of 5% or lower (almost no effect)).
